The text below walks through data of patent US5998462A, “5-alkyl indole compounds” (Allelix Biopharmaceuticals Inc., priority 1996, dated 1999).

Each structure is given as a SMILES string.

The target of the first assay is T1, 5-HT1D-like receptor (Oryctolagus cuniculus, UniProt P49144).
T1 construct: Ring segments of the vein (4-5 mm in length) were cut and the endothelium gently removed; from tissue; host or cells: saphenous vein rings, endothelium removed, male New Zealand White rabbits
T1 sequence (P49144 whole entry): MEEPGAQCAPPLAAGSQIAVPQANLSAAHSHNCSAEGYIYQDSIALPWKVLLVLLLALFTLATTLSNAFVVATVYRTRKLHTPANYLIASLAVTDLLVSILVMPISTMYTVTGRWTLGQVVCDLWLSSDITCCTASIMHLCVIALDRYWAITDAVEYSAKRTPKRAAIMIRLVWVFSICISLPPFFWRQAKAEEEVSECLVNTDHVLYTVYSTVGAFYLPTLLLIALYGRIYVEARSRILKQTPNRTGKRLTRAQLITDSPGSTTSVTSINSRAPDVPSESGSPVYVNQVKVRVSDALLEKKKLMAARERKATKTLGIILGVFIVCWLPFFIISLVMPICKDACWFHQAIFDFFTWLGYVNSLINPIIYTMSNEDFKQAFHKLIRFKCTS
As to the kind of experiment: Agonist assay: contraction of rabbit isolated saphenous vein (5-HT1D-like receptor agonist activity). On the set-up: species or system rabbit (New Zealand White).
Details: not given
How it is done:
The saphenous veins from both the left and right side were cleaned of fat and connective tissue and placed in Krebs solution (118 mM NaCl, 11 mM glucose, 25 mM NaHCO3, 4.7 mM KCl, 2.5 mM CaCl2.2H2 O, 1.2 mM KH2 PO4, and 1.2 mM MgSO4.7H2 O. Ring segments of the vein (4-5 mm in length) were cut and the endothelium gently removed. The segments were mounted in 10 mL baths containing Krebs buffer and were constantly aerated with 95% oxygen/5% carbon dioxide and maintained at 37° C. and pH 7.4 in order to record the isometric tension. A resting tension of 2.5 g was applied and the tissues allowed to equilibrate for 90 minutes, with washing every 15-20 minutes. After the equilibrium period, the rings were depolarized by the addition of two aliquots of KCl (80 mM final concentration) separated by a 20 minute washing period. The tissues were then exposed to prazosin, idazoxan and indomethacin (all 1 μM final concentration) for 30 minutes in order to exclude the actions of α1 - and α2 -adrenergic receptors and prostaglandin receptors respectively. […] Responses were calculated as a percentage of the maximal contraction evoked by 80 mM KCl. Only one compound was tested per preparation.
EC50 represents the concentration of the compound which causes 50% of the maximum contraction effected by it.
In the case of `Cc1ccc2[nH]cc(C[C@H]3CCCN3C)c2c1` [Example 7e, (R)-3-[(N-Methylpyrrolidin-2-yl)methyl]-5-methyl-1H-indole], the EC50 stood at 100 nM.
`CN1CCC[C@@H]1Cc1c[nH]c2ccc(C(C)(C)C)cc12` [Example 7f, (R)-3-[(N-Methylpyrrolidin-2-yl)methyl]-5-tert-butyl-1H-indole] had an EC50 of 52 nM.
In turn, `CC(C)c1ccc2[nH]cc(C[C@H]3CCCN3C)c2c1` [Example 7g, (R)-3-[(N-Methylpyrrolidin-2-yl)methyl]-5-isopropyl-1H-indole] gave an EC50 of 29 nM.
Regarding `Cc1ccc2[nH]cc(C[C@@H]3CCCN3C)c2c1` [Example 7h, (S)-3-[(N-Methylpyrrolidin-2-yl)methyl]-5-methyl-1H-indole], the EC50 was 1800 nM.
The compound `Cc1ccc2[nH]cc(C[C@H]3CCCN3)c2c1` [Example 7j, (R)-5-Methyl-3-[(pyrrolidin-2-yl)methyl]-1H-indole] displayed an EC50 of 830 nM.
Regarding `CC(C)c1ccc2[nH]cc(CCN3CCCC3)c2c1` [Example 8a, 5-Isopropyl-3-(2-pyrrolidinylethyl)-1H-indole], the EC50 amounted to 250 nM.
In turn, `CC(C)(C)c1ccc2[nH]cc(CCN3CCCC3)c2c1` [Example 8b, 5-Tert-butyl-3-(2-pyrrolidinylethyl)-1H-indole] registered an EC50 of 1200 nM.
On to `Cc1ccc2[nH]cc(CCN3CCCC3)c2c1` [Example 8c, 5-Methyl-3-(2-pyrrolidinylethyl)-1H-indole], for which the EC50 was determined as 590 nM.
Take `Cc1ccc2[nH]cc(CCN3CC=CC3)c2c1` [Example 8d, 5-Methyl-3-(2-pyrrolinylethyl)-1H-indole]: the EC50 came out at 2900 nM.
In turn, `CCc1ccc2[nH]cc(C[C@H]3CCCN3C)c2c1` [Example 11b, (R)-5-Ethyl-3-[(N-methylpyrrolidin-2-yl)methyl]-1 H-indole] had an EC50 of 15 nM.

The assay is the same for the next values; noted with them: rabbit isolated saphenous vein rings, 37° C., pH 7.4; prazosin, idazoxan and indomethacin 1 μM present; read-out: EC50 (concentration of the compound which causes 50% of the maximum contraction effected by it).
With `Cc1ccc2[nH]cc(C3CCN(C)C3)c2c1` (stereo not drawn) [Example 7i, 5-Methyl-3-(N-methylpyrrolidin-3-yl)-1H-indole], the EC50 is 470 nM.
With `CCc1ccc2[nH]cc(C3CCN(C)C3)c2c1` (stereo not drawn) [Example 11c, 5-Ethyl-3-(N-methylpyrrolidin-3-yl)-1H-indole], the EC50 stood at 900 nM.
